Measurements as given in BindingDB's records for patent US20230303553 (Jiangsu Tasly Diyi Pharmaceutical, 2023).

Target: Cyclin-dependent kinase 6 (Homo sapiens, UniProt Q00534)
Experiment: CDK6 Kinase Activity Analysis and Detection Method

Cyclin-dependent kinase 6, sequence (Q00534 whole entry): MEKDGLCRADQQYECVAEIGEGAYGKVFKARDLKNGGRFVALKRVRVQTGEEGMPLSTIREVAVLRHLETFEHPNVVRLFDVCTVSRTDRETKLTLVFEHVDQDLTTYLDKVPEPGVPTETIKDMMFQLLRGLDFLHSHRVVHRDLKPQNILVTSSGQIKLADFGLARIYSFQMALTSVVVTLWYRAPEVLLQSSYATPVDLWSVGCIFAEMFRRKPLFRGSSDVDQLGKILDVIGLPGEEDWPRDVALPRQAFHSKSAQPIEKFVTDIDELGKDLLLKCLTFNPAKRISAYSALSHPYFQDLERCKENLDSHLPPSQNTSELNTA

IC50: 127 nM
SMILES: CCN1CCN(C(=O)c2ccc(Nc3ncc(F)c(-c4ccc5nc(C)sc5c4)n3)nc2)CC1 [US20230303553, Example 12]
